Data on three substances can be found in patent US20120065123A1, “Synthetic Antibodies” (priority 2009, published 2012).

For test [1], the target named is T1, Transferrin (Homo sapiens, UniProt P02787). As to the kind of experiment: SPR solution phase KD of candidate affinity elements, transferrin immobilized (Biacore T100). The class given is binding. The settings on record: steady-state response, 25° C., PBST. On the procedure:
Transferrin 25 μg/ml in immobilization buffer selected for correct pH was then applied 302 at a flow rate of 5 to 10 μl/min for a contact time of about 5 to 10 minutes, allowing the amine functionality on the transferrin 308 to displace the activated NHS ester and bond to the surface via an amide bond. Finally, ethylene diamine (1M ethylene diamine-HCl at pH 8.5) was applied 304 at a flow rate of 5 to 10 μl/min for a contact time of about 6 to 7 minutes to deactivate any remaining reactive groups on the dextran chip surface. Flow rates and contact times are adjusted as necessary to provide the surface concentration of target desired for the intended application, and may vary by target. In general, for evaluating whether binding occurs, it is preferable to immobilize a relatively large quantity of target, and higher flow rates and/or longer contact times may be used. For determining kinetics, it is preferable to limit the amount of target immobilized so as to minimize rebinding and avidity effects, and lower flow rates and/or contact times may be used.
Candidate affinity elements for the transferrin synbody TRF19, TRF21, TRF23, TRF24, TRF25, and TRF26 were individually evaluated for solution phase KD with respect to transferrin by SPR analysis. Because the off rates for these polypeptides were very high, KD values were estimated by measuring steady-state response for at least five concentrations in a two-fold dilution series, each concentration tested in duplicate. For each experiment, response data were processed using a reference surface to correct for bulk refractive index changes and any non-specific binding. Data were also double referenced using responses from blank running buffer injections. Each experiment was conducted at 25° C. using PBST (0.01M Phosphate Buffered Saline, 0.138M NaCl, 0.0027M KCl, 0.05% surfactant Tween20, pH 7.4) as the running buffer on a Biacore T100 instrument. Analytes were injected for 60 s at a flow rate of 30 μl/min. The antigen surfaces were regenerated with 30 s consecutive pulses of NaOH/NaCl (50 mM NaOH in 1M NaCl) and Glycine (10 mM glycine-HCl, pH 2.5).
In general terms: In SPR one partner is held on a chip, and binding of the other changes the refractive index at the surface.

In test [2] the target is T1, Transferrin. Kind of test: SPR analysis of peptide pairs for binding to distinct sites on target. Particulars: peptides applied in 1:1 mixtures in pairs. An excerpt: The transferrin target was immobilized on a Biacore T100 SPR chip, and candidate polypeptides were applied in 1:1 mixtures in pairs and response data obtained, in accordance with the methods described in Example 4 above. As illustrated in FIGS. 12A-D, upon flowing candidate polypeptides over the immobilized target, ideally one polypeptide applied alone would bind to a first binding site on the target and produce a first characteristic SPR response level (FIG. 12A), the other polypeptide would bind to a second, distinct binding site on the target, producing a second characteristic response level (FIG. 12B), and a mixture of the two polypeptides together (at the same concentrations as before) would produce a response level approximating the sum of the response levels produced by each polypeptide alone, as the polypeptides bind to distinct binding sites (FIG. 12C).

For test [3], the target named is T1, Transferrin. As to the kind of experiment: Peptide microarray ranking, labeled transferrin with E. coli lysate competitor. The class given is binding. On the procedure: Several polypeptides were identified as candidate affinity elements for synbodies against an arbitrarily chosen protein target, transferrin, by incubating transferrin on the polypeptide microarray in the presence of E. coli lysate competitor. Transferrin was randomly direct-labeled at free amines with Alexa™ 555, and E. coli lysate was randomly direct-labeled at free amines with Alexa™ 647. Three replicate arrays were passivized by applying a mixture of BSA and mercaptohexanol for one hour. The arrays were blocked with unlabelled E. coli lysate for one hour, then washed three times with TBST (0.05% Tween) followed by three times with water. A mixture of labeled transferrin and labeled E. coli lysate was applied to the three replicate arrays and incubated for three hours. The arrays were again washed three times with TBST (0.05% Tween) followed by three times with water, and scanned at 555 nm and 647 nm using an array reader. Polypeptides were ranked as candidates for inclusion as affinity elements of synbodies by computing a score for each polypeptide equal to the mean raw 555 nm intensity over the six replicate features, squared, divided by the mean raw 647 nm intensity over the six replicate features. This simple scoring function tends to favor candidate polypeptides that bind at least moderate affinity, since otherwise the 555 nm intensity would be relatively lower, and that are relatively specific, since otherwise the 647 nm intensity would be relatively higher and contribute to a relatively lower score. Many variations of this ranking and identification process can be used, such as, by way of non-limiting examples, two-color comparisons against other competitors; comparisons with data taken in separate experiments with respect to other targets; and use of scoring functions taking into account other factors, employing other functional relationships, and/or involving statistical analysis and/or preprocessing of data and/or correcting for background fluorescence and/or other factors affecting the accuracy of the measured intensities. Ten polypeptides (Table 1) were identified for further evaluation for use as affinity elements in synbodies by choosing the polypeptides having the highest score (one polypeptide was rejected as difficult to synthesize, so the polypeptides chosen were ten of those having the eleven highest scores).
After preparation of the array in accordance with the methods previously described in Example 2, the array was washed one time for five minutes in 7.33% acetonitrile, 37% isopropanol, 0.55% trifluoroacetic acid, and 55% water. Alexa 555 labeled target protein transferrin was applied, together with Alexa 647 labeled E. coli lysate competitor, to the prewashed array and to an identical array without organic prewash. […] 5,010 on the array without organic prewash, but ranked no. 9601 on the prewashed array. Conversely, peptide TRF-21, shown by SPR analysis to be a relatively strong binder of transferrin, rose in rank from 84 on the non-prewashed array to rank no. 5 on the prewashed array.

A further test has as its target T2, pooled human transferrin (Homo sapiens, UniProt P02787).
T2 construct: purchased Sigma
Kind of test: High throughput SPR screening of peptides (Biacore A-100). The class given is binding. Particulars: purified peptide, several concentrations; read-out: KD with respect to transferrin. The protocol:
Peptide affinity element candidates were screened against target proteins immobilized on the SPR surface. Each target protein was modified with biotin using the following procedure: NHS-LC-LC-Biotin (Pierce Biotechnology) was re-suspended in DMSO at a concentration of 7.13 mM. Each protein was prepared in 100 mM PBS pH 7.5 at a concentration of ˜50 μM. NHS-LC-LC-Biotin was then added to the protein solution at a 3:1 or 5:1 molar ratio. The reaction was performed for 2 hours at room temperature and the protein sample was analyzed by MALDI mass spectrometry to determine the number of biotin molecules added per molecule of protein. Excess NHS-LC-LC-Biotin was removed using a 3 kDa spin filter. The target proteins for which data is shown in this example were pooled human transferrin (Sigma) and purified bovine ubiquitin.
A Biacore A-100 Surface Plasmon Resonance (SPR) system was used to measure the binding response of each peptide to several different target proteins immobilized on a gold surface. […] Each biotinylated protein was injected over a single spot and the amount of protein captured was measured. […]
Data analysis was performed using the A-100 Evaluation software package that analyzes and filters the data using a variety of measures of quality control for each sensorgram. […] In this manner a relative measure of the specificity of binding for each peptide was determined. […]

Test [4] concerns 8,000 human proteins (GST fusion). Kind of test: Protein microarray screen (Invitrogen Protoarray Human Protein Microarray, 8,000 features). The class given is binding. Particulars: fluorescence intensity. On the procedure: Two biotinylated anti-TRF synbodies (SYN23-26 and SYN 21-22) were applied to a protein microarray having 8,000 features (Invitrogen Protoarray Human Protein Microarray v. 4.0 for immune response biomarker profiling), each feature comprising a distinct human protein (GST fusion) adsorbed to a nitrocellulose coated slide. Application of the synbodies to the microarray was performed in accordance with manufacturer instructions: (see ProtoArray Human Protein Microarray, Invitrogen, Catalog no. PAH052401, Version B, 15 Dec. 2006, 25-0970, Users Manual.) After blocking the array with 1% BSA/PBS/0.1% Tween for 1 hour at 4C with gentle shaking, 120 μl of probing buffer (1×PBS, 5 mM mgCl2, 0.5 mM DTT, 0.05% Triton X-100, 5% glycerol, 1% BSA) with synbody was applied to the array. The prescribed cover slip was placed over the array and adjusted to remove air bubbles. The array was incubated in a 50 ml conical tube, printed side up, for 1.5 hours at 4C without shaking. The array was then removed from the conical tube inserted diagonally into the array chamber, kept on ice. 8 ml probing buffer was added to the chamber wall. The cover slip was removed and the array was incubated in probing buffer for 1 minute on ice. […] The array was dried in the dark for 60 minutes at room temperature, after which it was scanned using a fluorescent microarray scanner and data was taken and analyzed.

One may read the Kd as the equilibrium constant for the complex coming apart.

Bridges are numbered along the chain shown (N, C = ends). Roman numbers before positions name the chains, in order. Where no end group is shown, it is not given here.

T1 sequence (P02787 20-698): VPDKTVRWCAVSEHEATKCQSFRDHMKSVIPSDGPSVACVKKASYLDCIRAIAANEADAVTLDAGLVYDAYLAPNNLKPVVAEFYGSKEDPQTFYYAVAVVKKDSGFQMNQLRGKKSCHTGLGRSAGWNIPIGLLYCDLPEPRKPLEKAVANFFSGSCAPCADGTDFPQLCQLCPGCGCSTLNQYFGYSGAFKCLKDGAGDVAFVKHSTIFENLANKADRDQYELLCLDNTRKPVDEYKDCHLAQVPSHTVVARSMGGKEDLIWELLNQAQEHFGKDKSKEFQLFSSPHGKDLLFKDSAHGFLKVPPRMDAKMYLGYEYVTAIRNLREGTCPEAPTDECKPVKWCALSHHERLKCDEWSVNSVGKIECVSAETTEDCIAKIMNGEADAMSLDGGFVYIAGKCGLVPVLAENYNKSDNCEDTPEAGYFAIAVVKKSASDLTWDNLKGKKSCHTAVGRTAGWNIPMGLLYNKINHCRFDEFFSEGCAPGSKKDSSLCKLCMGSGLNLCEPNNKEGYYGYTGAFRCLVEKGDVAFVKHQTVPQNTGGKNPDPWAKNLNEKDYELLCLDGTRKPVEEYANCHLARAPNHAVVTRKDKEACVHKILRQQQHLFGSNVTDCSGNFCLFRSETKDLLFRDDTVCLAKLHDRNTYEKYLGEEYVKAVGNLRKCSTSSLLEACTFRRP
T2 sequence (P02787 20-698): as above

Turning to FRGWAHIFFGPHVIYRGGSC [TRF23], the Kd at Transferrin [1] was ~50 µM. Further, on Transferrin [2], the “binding to distinct sites on transferrin” value was “bind distinct sites on transferrin”. Moreover, the Rank -- prewash at Transferrin [3] (array with organic prewash) is reported as 2091. In addition, the Rank - non-prewash on Transferrin [3] (array without organic prewash) is listed as 2722.
With ARDLLIQKNSGQDVDHRGSC [TRF101], the Kd on pooled human transferrin is 78.9 ± 27 µM.
On to “I: AHKVVPQRQIRHAYNRYGSGKC / II: FRGWAHIFFGPHVIYRGGSG (amide I:21-II:C) [SYN23-26]”, for which, in test [4], the “highest affinity target from a library of 8,000” value is “PCCA”.
